These results are taken from PubChem BioAssay (NCI).

Several values for one entry are separate records, joined by “and”; a condition that tells them apart may be missing. Equal values may be shown once.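 Compound exposure: 48 hours, 5 concentrations, 96-well plates. GI50 is the concentration that inhibits growth by half. TGI: concentration producing complete growth inhibition.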

Holding throughout (experiment): NCI anticancer screen, dose series, 48 h
Test [1] deals with RXF 393 renal.
Test [2] relates to NCI-H522 lung.
Test [3] has as its system UACC-62 melanoma.
The subject of test [4] is DU-145 prostate.
Test [5] relates to HCT-15 colon.
Test [6] deals with SR leukemia.
For test [7], the system named is LOX IMVI melanoma.
For test [8], the system named is HOP-92 NSCLC.
The subject of test [9] is UACC-257 melanoma.
The subject of test [10] is MDA-MB-435.
The subject of test [11] is MALME-3M melanoma.
The test system of test [12] is HS 578T breast.

As to `O=c1c2cc(I)ccc2nc(-c2cccs2)n1/N=C/c1ccccc1`, the TGI in test [1], in test [2], in [3], in [4], in test [5] and in test [6] was over 100 µM throughout. Moreover, the TGI in test [7], in [8], in test [9] and in test [10] was over 100 µM each time.
As to `COc1cc(C=O)cc(O)c1O`, the TGI in test [2], in test [3], in [5], in test [6], in test [7] and in [9] was over 100 µM in each case. The TGI in test [11] was over 100 µM.
Regarding `CCCCC(=O)Nc1ccc2c(C)cc(-c3ccc(-c4cc(-c5ccc(C)cc5)cc(-c5ccc(-c6cc(C)c7ccc(NC(=O)CCCC)nc7n6)cc5)n4)cc3)nc2n1`, the TGI in [2], in test [3], in test [4], in [5], in test [8] and in test [9] was over 100 µM in each case. In addition, the TGI in test [11] and in test [10] was over 100 µM throughout.
In the case of `N#Cc1c(O)c2ccccc2[nH]c1=O`, the TGI in test [1], in test [2], in [3], in [4], in [5] and in [7] was over 100 µM in each case. Also, the TGI in test [8], in [9], in [11] and in [10] was over 100 µM throughout.
Turning to `O=C1/C(=C/c2ccc(Cl)cc2)CSC/C1=C\c1ccc(Cl)cc1`, the TGI in test [1] was 3.36 µM; in [2], 15.2 µM; in test [3], 2.83 µM; in test [4], 24.8 µM; in [5], over 100 µM; in [6] it was 8.15 µM. In addition, the TGI came out at 5.3 µM in [7], 43.2 µM in test [8], 5.08 µM in test [9] and 36.9 µM in test [11].
In the case of `O=c1c([OH2+])c(-c2ccc(O)cc2[O-])oc2cc(O)cc([O-])c12.O=c1c([OH2+])c(-c2ccc(O)cc2[O-])oc2cc(O)cc([O-])c12.[Ti+4]`, the GI50 in test [1] and in test [3] was over 100 µM throughout. In addition, the TGI in [1], in [2], in [3], in [5], in test [7] and in [9] was over 100 µM throughout. In test [11], the TGI was over 100 µM.
With `O=c1ccnc2ccc3n[nH][nH]c3c12`, the TGI in [1], in test [3], in test [5], in test [8], in test [9] and in [11] was over 100 µM throughout.
`CCOC(=O)C(=O)NC12CC3CC(CC(C3)C1)C2`: the TGI in [1], in [2], in test [3], in test [5], in test [7] and in [8] was over 100 µM in each case. The TGI in test [9] and in [11] was over 100 µM throughout.
For `O=C1CCCc2ccc3c(c21)CC1(Cc2ccccc2C1)C3`, the TGI was over 100 µM in test [1]; 74.3 µM in test [2]; over 100 µM in test [12]; over 100 µM in [3]; over 100 µM in test [5]; over 100 µM in [7]. The TGI is 50.6 µM in test [8], 58 µM in [9], over 100 µM in test [11] and over 100 µM in test [10].
Take `COc1cccc2c1C(=O)c1c(O)c3c(c(O)c1C2=O)C[C@@](O)(C(=O)CO)CC3OC1CC(NCCCC(OC(C)=O)OC(C)=O)C(O)C(C)O1` (stereo not given in full): the GI50 was 0.000198 µM in [1]; under 0.0001 µM in test [2]; under 0.0001 µM in test [3]; 0.00024 µM in test [8]; 0.000314 µM in [9]. Moreover, the TGI in test [1] is 0.00328 µM and 0.000813 µM; in test [2], 0.00346 µM and 0.000412 µM; in test [6], 0.000288 µM; in test [7], 0.000743 µM; in test [8], 0.0065 µM and 0.000862 µM; in test [9], 0.00739 µM and 0.00144 µM. The same compound had a TGI in test [11] of 0.00452 µM.
As for `CN(C(=O)c1ccco1)C(=S)N1CCN(c2ccccn2)CC1`, the TGI in [1], in test [2], in test [3], in test [5], in [7] and in [8] was over 100 µM in each case. The TGI in test [9] and in test [11] was over 100 µM in each case.
For `COc1cc2c[n+](C)c3c4cc(OC)c(OC)cc4ccc3c2cc1OC`, the GI50 in test [1] is > 100 µM and 28.5 µM; in [12], > 100 µM and 10.3 µM; in test [11] it was > 100 µM and 21.7 µM. The TGI in test [1] was over 100 µM; in [2], 42.2 µM; in test [12], over 100 µM; in [3], over 100 µM; in [4] it was over 100 µM; in [5], over 100 µM. Further, the TGI in test [7], in test [9], in test [11] and in test [10] was over 100 µM throughout.
As for `c1ccc([P+](c2ccccc2)(c2ccccc2)C2c3ccccc3-c3ccccc32)cc1`, the TGI in [1] was determined as 5.06 µM; in [2], 6.06 µM; in test [12] it was 5.75 µM; in test [3] it was 5.02 µM; in test [4], 60.6 µM; in test [5], 11 µM. The TGI in test [7] amounted to 4.96 µM; in [9] it was 5.91 µM; in test [11], 15.1 µM; in [10], 3.18 µM.
On to `NC(Cc1ccc(B(O)O)cc1)C(=O)NC(CO)CO` (stereo not given), for which the TGI in test [1], in [2], in test [12], in [3], in test [5] and in test [6] was over 100 µM each time. In addition, the TGI in test [7], in test [9], in test [11] and in [10] was over 100 µM each time.
Take `CCCN(CCC)C1=Nc2ccccc2-n2cnnc2C1`: the TGI in [1], in [2], in [3], in [5], in test [6] and in [7] was over 100 µM in each case. Also, the TGI in test [11] was over 100 µM.
Take `[N-]=[N+]=CC(=O)CCC(=O)N(c1ccccc1)c1ccccc1`: the TGI in [1], in test [4], in test [5], in [6], in test [7] and in test [8] was over 10 µM throughout. The TGI in test [9], in [11] and in test [10] was over 10 µM each time.
Consider `CC[C@@]1(CCC(=O)NCCc2c[nH]c3ccccc23)CCC(=O)N2CCc3c([nH]c4ccccc34)[C@H]21`, for which the TGI is 33.3 µM in test [1]; 18.8 µM in test [2]; 65.3 µM in test [3]; over 100 µM in [4]; over 100 µM in test [5]; 96.2 µM in test [7]. Also, the TGI in [8] is over 100 µM; in [9], over 100 µM; in [11], 25.4 µM; in test [10] it was 47.1 µM.
For `COc1cc(C2c3c(ccc4ccccc34)C(=O)C3CCC(=O)N32)cc(OC)c1O` (stereo not given), the TGI in test [1], in test [3], in test [4], in test [5], in [6] and in test [8] was over 25 µM in each case. In addition, the TGI in test [9] and in test [10] was over 25 µM each time.
In the case of `O=C1c2ccccc2C(=O)c2c(NCCCN3CCOCC3)ccc(NCCCN3CCOCC3)c21`, the TGI in test [1] was 27.1 µM; in test [2], 2.35 µM; in test [12], 28.5 µM; in test [3], 6.05 µM; in test [4], 52.6 µM; in test [5] it was over 100 µM. Also, the TGI in test [6] was over 100 µM; in test [7], 3.61 µM; in test [8], 15.9 µM; in test [9] it was 9.91 µM; in test [11], 27.7 µM.
Take `N#Cc1c(N2CCN(c3ccc([N+](=O)[O-])cc3)CC2)[n+](=O)c2ccccc2n1[O-]`: the TGI was over 100 µM in test [1]; over 100 µM in test [2]; over 100 µM in [3]; over 100 µM in test [4]; over 100 µM in test [5]; 5.69 µM in test [6]. Also, the TGI in [7], in [9], in test [11] and in test [10] was over 100 µM throughout.
As to `Cn1c(N=P(c2ccccc2)(c2ccccc2)c2ccccc2)c([N+](=O)[O-])c(=O)n(C)c1=O`, the TGI in [1], in test [2], in [12], in test [3], in [5] and in test [7] was over 100 µM each time. Besides, the TGI in test [8], in [9], in test [11] and in [10] was over 100 µM each time.
Consider `Cn1c(=O)c(Cl)c(N=[N+]=[N-])c2ccccc21`, for which the TGI in test [1], in test [2], in test [12], in test [3], in test [4] and in test [5] was over 100 µM in each case. For the same compound, the TGI in test [6], in test [7], in test [8], in [9] and in test [11] was over 100 µM each time.
Regarding `Cc1ccc(-c2cc(-c3ccco3)c(C#N)c(=O)n2C2OC(CO)C(O)C(O)C2O)cc1` (stereo not given), the TGI in [1], in test [2], in test [3], in [5], in test [6] and in test [7] was over 100 µM throughout. Besides, the TGI is over 100 µM in test [9] and 78.2 µM in test [11].
Turning to `CC1=C2C3OC(=O)C(C)C3CCC2(C)C=CC1=Nc1ccccc1` (stereo not given), the TGI in test [1], in test [2], in [3], in [5], in [7] and in [8] was over 100 µM each time. In addition, the TGI in test [9] and in [11] was over 100 µM throughout.
Take `CC1=CCC2CC1NC(=O)CCOCCC(=O)NC2(C)C` (stereo not given): the TGI in test [1], in test [2], in test [3], in test [4], in [5] and in test [6] was over 100 µM throughout. Further, the TGI in test [7], in [8], in [9] and in test [10] was over 100 µM in each case.
Consider `CCCNC(=O)N(C)C(=O)N1N=C(c2ccccc2)C1c1ccccc1` (stereo not given), for which the TGI in test [1], in test [2], in test [3], in test [4], in [5] and in [7] was over 100 µM each time. For the same compound, the TGI in test [8], in [9], in test [11] and in test [10] was over 100 µM each time.
Regarding `CN(C(=O)c1ccc(OCCCC(=O)O)c(Cl)c1Cl)C1CCCC1`, the TGI in [1], in test [2], in test [3], in test [5], in test [7] and in [8] was over 100 µM throughout. In addition, the TGI in [9] and in test [11] was over 100 µM each time.
For `COC(=O)C1=C(CCC[C@H](C)O[Si](C)(C)C(C)(C)C)NC(=O)N2[C@@H](CCO)CC[C@H]12`, the TGI in test [1] came to 27.5 µM; in test [2], 19.2 µM; in [4], 44.4 µM; in [5], 28.9 µM; in [7] it was 32.7 µM; in [8], 28.4 µM. The figures for the TGI in [9], in test [11] and in test [10] were 28.9 µM, 25.9 µM and 39.7 µM, respectively.
